Our source for the remaining activity values is publication PMC7827406, “Structure–Activity Relationship (SAR) Study of Spautin-1 to Entail the Discovery of Novel NEK4 Inhibitors” (International Journal of Molecular Sciences, 2021).

What all share (experiment): biochemical
Common to all, as to design: Eurofins KinaseProfiler full panel at Km ATP, residual kinase activity (%) relative to DMSO

Experiment [1] concerns the target T1, CaMKIß(h) (Homo sapiens, UniProt Q6P2M8).
T1 construct: gene PNCK
An outline of the steps:
(§1)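 Radiometric kinase activity assays were run with ATP at Km and compounds at 10 µM, and remaining activity (%) was reported. A separate competitive binding screen measured DNA-tagged kinase displaced from immobilized active-site ligands by qPCR, giving percent kinase still bound at 10 µM compound in DMSO.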

Experiment [2] has as its target T2, Itk(h) (Homo sapiens, UniProt Q08881).
T2 sequence (Q08881 1-620): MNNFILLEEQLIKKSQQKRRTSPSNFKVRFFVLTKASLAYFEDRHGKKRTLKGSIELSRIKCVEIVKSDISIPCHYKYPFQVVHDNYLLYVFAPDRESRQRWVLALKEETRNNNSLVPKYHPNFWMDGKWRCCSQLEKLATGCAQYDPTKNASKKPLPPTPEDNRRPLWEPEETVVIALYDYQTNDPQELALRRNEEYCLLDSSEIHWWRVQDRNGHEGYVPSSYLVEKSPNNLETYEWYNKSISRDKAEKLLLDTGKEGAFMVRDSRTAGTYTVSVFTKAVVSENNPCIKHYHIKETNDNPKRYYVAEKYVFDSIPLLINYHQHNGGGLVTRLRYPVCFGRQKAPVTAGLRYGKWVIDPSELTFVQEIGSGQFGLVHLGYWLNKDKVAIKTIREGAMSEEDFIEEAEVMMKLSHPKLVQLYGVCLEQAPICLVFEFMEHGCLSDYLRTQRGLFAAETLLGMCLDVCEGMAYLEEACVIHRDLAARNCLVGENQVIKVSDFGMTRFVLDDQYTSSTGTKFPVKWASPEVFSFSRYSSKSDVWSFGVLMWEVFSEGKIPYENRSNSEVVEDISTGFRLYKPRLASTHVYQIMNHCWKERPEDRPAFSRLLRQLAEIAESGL
In outline:
as §1

The target of experiment [3] is T3, LATS1(h) (Homo sapiens, UniProt O95835).
T3 sequence (O95835 1-1130): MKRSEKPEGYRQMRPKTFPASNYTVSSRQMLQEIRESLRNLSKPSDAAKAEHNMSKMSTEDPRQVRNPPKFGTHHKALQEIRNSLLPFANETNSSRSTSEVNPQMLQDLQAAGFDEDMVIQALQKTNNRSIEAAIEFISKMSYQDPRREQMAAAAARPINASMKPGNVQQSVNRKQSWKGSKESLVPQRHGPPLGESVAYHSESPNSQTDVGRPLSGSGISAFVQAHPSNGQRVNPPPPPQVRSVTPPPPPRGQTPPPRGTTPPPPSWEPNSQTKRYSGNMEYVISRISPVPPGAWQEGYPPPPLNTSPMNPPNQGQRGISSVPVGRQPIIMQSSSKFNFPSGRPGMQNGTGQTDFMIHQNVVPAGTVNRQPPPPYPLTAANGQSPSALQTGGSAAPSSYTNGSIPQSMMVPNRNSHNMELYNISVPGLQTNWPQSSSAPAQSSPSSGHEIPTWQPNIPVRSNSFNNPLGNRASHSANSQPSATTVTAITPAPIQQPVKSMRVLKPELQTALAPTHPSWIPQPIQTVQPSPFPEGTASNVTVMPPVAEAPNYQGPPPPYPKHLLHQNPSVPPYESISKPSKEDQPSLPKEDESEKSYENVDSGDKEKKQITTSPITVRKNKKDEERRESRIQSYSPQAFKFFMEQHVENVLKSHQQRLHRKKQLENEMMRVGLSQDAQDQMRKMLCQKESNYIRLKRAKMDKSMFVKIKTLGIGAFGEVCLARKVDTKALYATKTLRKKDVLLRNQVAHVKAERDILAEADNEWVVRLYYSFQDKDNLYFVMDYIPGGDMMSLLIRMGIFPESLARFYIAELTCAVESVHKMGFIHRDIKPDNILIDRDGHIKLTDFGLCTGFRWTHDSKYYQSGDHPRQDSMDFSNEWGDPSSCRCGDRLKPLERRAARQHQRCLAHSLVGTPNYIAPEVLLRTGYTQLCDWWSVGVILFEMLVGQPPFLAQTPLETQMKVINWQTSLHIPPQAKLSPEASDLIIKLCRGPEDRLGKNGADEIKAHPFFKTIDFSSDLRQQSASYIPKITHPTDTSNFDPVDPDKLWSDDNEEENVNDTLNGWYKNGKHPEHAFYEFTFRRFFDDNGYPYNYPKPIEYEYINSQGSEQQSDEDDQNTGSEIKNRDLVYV
An outline of the steps: as §1

The target of experiment [4] is LTK(h) (Homo sapiens, UniProt P29376). In outline:
as §1

Experiment [5] addresses T4, NDR2(h) (Homo sapiens, UniProt Q9Y2H1).
T4 construct: gene STK38L
In outline:
as §1

Experiment [6] concerns the target PAK1(h) (Homo sapiens, UniProt Q13153). In outline: as §1
Experiment [7] deals with T5, ROCK-II(h) (Homo sapiens, UniProt O75116).
T5 construct: gene ROCK2
T5 sequence (O75116 whole entry): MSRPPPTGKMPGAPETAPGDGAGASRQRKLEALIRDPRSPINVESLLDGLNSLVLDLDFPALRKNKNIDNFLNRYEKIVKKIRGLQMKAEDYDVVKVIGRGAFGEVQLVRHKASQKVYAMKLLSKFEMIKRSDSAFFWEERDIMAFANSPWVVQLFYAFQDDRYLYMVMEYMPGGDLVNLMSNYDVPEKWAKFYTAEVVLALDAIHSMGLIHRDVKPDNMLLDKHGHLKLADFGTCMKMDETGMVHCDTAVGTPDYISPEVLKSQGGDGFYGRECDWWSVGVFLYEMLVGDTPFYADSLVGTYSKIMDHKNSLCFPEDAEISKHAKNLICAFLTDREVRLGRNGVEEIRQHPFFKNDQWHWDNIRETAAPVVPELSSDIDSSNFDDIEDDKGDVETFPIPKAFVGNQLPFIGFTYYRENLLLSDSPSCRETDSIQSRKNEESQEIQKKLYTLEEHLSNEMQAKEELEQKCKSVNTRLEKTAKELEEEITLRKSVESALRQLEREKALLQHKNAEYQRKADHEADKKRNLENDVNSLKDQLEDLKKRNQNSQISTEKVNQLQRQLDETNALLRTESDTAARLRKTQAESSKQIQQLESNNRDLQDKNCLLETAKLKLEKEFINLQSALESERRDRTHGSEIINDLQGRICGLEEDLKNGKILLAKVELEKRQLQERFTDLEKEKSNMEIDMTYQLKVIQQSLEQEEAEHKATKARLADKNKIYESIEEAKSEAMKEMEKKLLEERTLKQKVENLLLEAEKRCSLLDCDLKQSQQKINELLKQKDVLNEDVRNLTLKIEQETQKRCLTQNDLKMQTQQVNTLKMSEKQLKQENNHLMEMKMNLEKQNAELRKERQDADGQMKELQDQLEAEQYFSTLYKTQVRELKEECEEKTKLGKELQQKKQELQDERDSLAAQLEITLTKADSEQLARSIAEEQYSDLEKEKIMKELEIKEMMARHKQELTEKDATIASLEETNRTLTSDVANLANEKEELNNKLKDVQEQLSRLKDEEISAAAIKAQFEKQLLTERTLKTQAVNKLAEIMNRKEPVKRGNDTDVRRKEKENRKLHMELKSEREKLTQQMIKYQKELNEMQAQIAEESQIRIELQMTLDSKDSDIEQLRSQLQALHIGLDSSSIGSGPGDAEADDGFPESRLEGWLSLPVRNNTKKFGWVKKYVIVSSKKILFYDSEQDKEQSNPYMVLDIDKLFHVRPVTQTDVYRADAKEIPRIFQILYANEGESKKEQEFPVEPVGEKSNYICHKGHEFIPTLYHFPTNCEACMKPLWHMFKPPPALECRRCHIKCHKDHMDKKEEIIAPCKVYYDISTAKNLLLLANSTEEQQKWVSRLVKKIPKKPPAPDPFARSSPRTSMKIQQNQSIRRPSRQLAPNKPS
In outline: as §1

Experiment [8] has as its target T6, SAPK2a(h) (Homo sapiens, UniProt Q16539).
T6 construct: gene MAPK14
An outline of the steps:
as §1

The mark [9] stands for this setting: read-out: Residual activity (%) 5at.
[10] abbreviates: read-out: Residual activity (%) 5ay.
The mark [11] stands for this setting: read-out: Residual activity (%) 5as.
[12] abbreviates: read-out: Residual activity (%) Spautin-1 5aa.

Where two headings read alike, the source gives them in different places.

T6 sequence (Q16539 whole entry): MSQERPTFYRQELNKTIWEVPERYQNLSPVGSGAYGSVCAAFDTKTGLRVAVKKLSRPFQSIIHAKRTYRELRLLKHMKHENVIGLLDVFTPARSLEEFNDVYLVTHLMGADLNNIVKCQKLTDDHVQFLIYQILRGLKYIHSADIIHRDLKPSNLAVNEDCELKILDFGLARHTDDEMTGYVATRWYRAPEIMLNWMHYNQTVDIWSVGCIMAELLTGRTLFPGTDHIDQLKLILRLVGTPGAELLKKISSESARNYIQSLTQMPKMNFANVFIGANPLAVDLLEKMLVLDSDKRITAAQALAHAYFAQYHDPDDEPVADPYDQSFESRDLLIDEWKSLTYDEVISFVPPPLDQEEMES
PAK1(h), sequence (Q13153 whole entry): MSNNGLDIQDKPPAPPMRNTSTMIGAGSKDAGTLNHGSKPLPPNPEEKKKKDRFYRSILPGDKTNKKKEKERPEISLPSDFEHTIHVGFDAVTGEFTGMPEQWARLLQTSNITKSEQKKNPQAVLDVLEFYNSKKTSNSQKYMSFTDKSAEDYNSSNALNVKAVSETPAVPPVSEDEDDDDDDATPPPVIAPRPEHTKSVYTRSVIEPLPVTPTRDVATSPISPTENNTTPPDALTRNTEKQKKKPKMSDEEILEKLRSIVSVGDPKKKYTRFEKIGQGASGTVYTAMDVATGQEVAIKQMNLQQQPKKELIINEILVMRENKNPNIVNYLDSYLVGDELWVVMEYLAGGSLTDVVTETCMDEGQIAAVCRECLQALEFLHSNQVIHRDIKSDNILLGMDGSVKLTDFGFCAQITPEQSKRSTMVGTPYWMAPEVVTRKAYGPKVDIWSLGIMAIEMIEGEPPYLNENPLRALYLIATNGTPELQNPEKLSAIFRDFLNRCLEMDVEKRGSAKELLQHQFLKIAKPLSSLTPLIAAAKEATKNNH
T4 sequence (Q9Y2H1 whole entry): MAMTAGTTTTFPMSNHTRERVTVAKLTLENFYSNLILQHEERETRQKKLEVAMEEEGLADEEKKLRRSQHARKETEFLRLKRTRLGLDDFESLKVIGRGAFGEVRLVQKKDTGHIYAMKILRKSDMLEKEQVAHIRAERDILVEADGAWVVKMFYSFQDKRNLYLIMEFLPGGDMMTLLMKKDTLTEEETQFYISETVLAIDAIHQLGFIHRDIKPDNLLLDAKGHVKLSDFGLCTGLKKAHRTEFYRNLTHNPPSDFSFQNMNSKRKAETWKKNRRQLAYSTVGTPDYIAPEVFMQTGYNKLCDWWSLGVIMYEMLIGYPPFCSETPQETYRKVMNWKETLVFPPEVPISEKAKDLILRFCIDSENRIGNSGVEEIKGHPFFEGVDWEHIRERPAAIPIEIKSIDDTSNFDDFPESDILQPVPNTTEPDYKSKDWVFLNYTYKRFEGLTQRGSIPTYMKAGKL
T1 sequence (Q6P2M8 whole entry): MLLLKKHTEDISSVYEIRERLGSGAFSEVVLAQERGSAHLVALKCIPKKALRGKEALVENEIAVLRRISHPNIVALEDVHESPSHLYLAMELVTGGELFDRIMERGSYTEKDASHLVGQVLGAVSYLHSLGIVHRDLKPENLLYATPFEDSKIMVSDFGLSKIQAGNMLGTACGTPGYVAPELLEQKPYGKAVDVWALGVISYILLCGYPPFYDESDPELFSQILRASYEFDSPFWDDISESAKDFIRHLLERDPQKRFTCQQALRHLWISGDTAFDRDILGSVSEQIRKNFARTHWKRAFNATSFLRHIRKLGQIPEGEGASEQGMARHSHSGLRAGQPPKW
LTK(h), sequence (P29376 whole entry): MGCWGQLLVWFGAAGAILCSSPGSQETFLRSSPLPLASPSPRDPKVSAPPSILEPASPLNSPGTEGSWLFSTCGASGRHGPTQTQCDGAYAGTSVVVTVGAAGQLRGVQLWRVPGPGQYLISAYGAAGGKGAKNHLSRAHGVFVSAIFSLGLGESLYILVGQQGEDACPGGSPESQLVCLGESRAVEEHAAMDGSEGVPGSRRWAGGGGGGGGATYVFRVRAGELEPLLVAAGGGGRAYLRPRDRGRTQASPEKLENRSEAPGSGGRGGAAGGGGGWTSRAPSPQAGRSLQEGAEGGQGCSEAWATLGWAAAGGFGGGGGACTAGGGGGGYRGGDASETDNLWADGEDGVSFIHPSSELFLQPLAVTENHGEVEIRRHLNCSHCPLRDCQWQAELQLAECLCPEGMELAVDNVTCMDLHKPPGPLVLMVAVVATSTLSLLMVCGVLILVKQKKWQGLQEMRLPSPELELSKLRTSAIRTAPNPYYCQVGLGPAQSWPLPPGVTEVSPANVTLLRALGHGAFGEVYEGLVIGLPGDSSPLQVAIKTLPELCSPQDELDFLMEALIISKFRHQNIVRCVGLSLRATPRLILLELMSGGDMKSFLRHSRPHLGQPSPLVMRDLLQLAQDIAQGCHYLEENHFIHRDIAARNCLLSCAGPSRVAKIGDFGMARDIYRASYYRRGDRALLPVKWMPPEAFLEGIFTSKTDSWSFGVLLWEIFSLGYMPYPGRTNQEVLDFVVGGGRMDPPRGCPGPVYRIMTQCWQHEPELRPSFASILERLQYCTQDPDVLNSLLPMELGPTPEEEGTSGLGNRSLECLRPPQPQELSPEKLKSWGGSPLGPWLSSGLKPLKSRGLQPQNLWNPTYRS

Consider `Fc1ccc2ncnc(NCCc3ccc(Cl)cc3)c2c1` [5at, N-[2-(4-Chlorophenyl)Ethyl]-6-Fluoro-4-Quinazolinamine], for which the remaining activity at 10 µM was 81% in experiment [1] (setting [9]); 103% in experiment [2] (setting [9]); 83% in experiment [3] (setting [9]); 74% in experiment [4] (setting [9]); 115% in experiment [5] (setting [9]); 90% in experiment [6] (setting [9]). The remaining activity at 10 µM was determined as 79% in experiment [7] (setting [9]) and 88% in experiment [8] (setting [9]).

In the case of `COc1ccc2ncnc(Nc3cccc(F)c3)c2c1` [5ay, N-(3-Fluorophenyl)-6-Methoxy-4-Quinazolinamine], the remaining activity at 10 µM in experiment [1] (setting [10]) stood at 92%; in experiment [2] (setting [10]), 88%; in experiment [3] (setting [10]), 79%; in experiment [4] (setting [10]), 76%; in experiment [5] (setting [10]) it was 103%; in experiment [6] (setting [10]), 97%. Besides, the results for the remaining activity at 10 µM in experiment [7] (setting [10]) and in experiment [8] (setting [10]) were 84% and 99%, respectively.

For `Fc1ccc(CCNc2ncnc3ccc(F)cc23)cc1` [5as, 6-Fluoro-N-[2-(4-Fluorophenyl)Ethyl]-4-Quinazolinamine], the remaining activity at 10 µM was 84% in experiment [1] (setting [11]); 97% in experiment [2] (setting [11]); 79% in experiment [3] (setting [11]); 76% in experiment [4] (setting [11]); 99% in experiment [5] (setting [11]); 81% in experiment [6] (setting [11]). The figures for the remaining activity at 10 µM in experiment [7] (setting [11]) and in experiment [8] (setting [11]) were 81% and 98%, respectively.

In the case of `Fc1ccc(CNc2ncnc3ccc(F)cc23)cc1` [5aa, 6-Fluoro-N-(4-fluorobenzyl)-4-Quinazolinamine], the remaining activity at 10 µM stood at 85% in experiment [1] (setting [12]); 117% in experiment [2] (setting [12]); 102% in experiment [3] (setting [12]); 88% in experiment [4] (setting [12]); 120% in experiment [5] (setting [12]); 94% in experiment [6] (setting [12]). Also, the remaining activity at 10 µM was determined as 88% in experiment [7] (setting [12]) and 95% in experiment [8] (setting [12]).
